Consider five compounds from patent publication US6106858A, “Modulation of drug loading in multivescular liposomes” (SkyePharma, Inc., priority 1997, dated 2000).

“And” between values parts separate entries of the source, which are not always exact repeats. Identical values can stand only once. Like-named read-outs stand apart in the source and are kept apart here.

Data set [1] in a line: Lipocrit of MVL suspension. The format is physicochemical. The settings on record: 125 mL scale, first aqueous: 15 mg/mL, 20 mM ammonium citrate. Here is the method: As used herein, "lipocrit," which is defined in analogy to hematocrit, means the ratio of the volume occupied by the liposomes to the total suspension volume multiplied by 100. [formula]
Thus, percent yield of drug was calculated as the ratio of the drug concentration in the final suspension times the volume of the final suspension to the drug concentration in the first aqueous solution times the volume of the first aqueous solution. Lipocrit was calculated, in analogy to hematocrit, as the percent ratio of the pellet volume to the suspension volume (see conditions below for obtaining the pellet volume).
To calculate the lipocrit about 50 μL of the multivesicular liposome suspension was taken up into a capillary tube, and end of the tube was sealed while ensuring that the suspension contained no air bubbles. The suspension was spun in a centrifuge at 600×g for 10 minutes to obtain a pellet layer and a supernatant layer. The percent ratio of the length of the tube occupied by the pellet to that occupied by the suspension gives the lipocrit.

A short description of data set [2]: Solubility of IGF-I versus pH. Type of data set: physicochemical. As for the experimental part:
Further studies were conducted using in the first aqueous component concentrations of IGF-I ranging from 10 to 80 mg/mL, either with or without 100 mM HCl or 25 mM citric acid at constant pH. […] Studies have shown that up to about 300 mg/mL of IGF-I is soluble at a pH below 5.

Data set [3] is described as follows: Integrity of encapsulated IGF-I by SDS-PAGE and RP-HPLC / characterization of encapsulated protein. Type of data set: physicochemical. An excerpt: (§1) The physicochemical integrity of the encapsulated IGF-I was confirmed by SDS-PAGE assay using Novex NuPage gel as well as by RP-HPLC assay using a C18 symmetric column. The encapsulated protein was extracted using 75:25 IPA:2N Citric Acid. The bioactivity of the encapsulated IGF-I was confirmed by a mitogenic bioassay using MG-63 human osteosarcoma cell line and 3-(4,5-dimethylthiazol-2-yl)-2,5-diphenyltetrazolium bromide (MTT) stain according to the method of W. Lopaczynski et al., Regulatory Peptides, 48:207-216, 1993. The MG-63 cells were obtained from the American Type Culture Collection (ATCC# CRL 1427), and the dose dependent mitogenic response of quiescent MG-63 cells to added IGF-I was determined.

For data set [4], the system named is MG-63 human osteosarcoma cell line. The experiment in a line: Mitogenic bioassay of extracted IGF-I with MTT stain. The settings on record: mitogenic response of quiescent MG-63 cells, versus unencapsulated standard. Type of data set: cell-based.
Excerpt: as §1

Data set [5] can be described thus: Percent free drug in MVL suspension. The following applies: 125 mL scale, first aqueous: 15 mg/mL, 8.0 w/v % sucrose, 20 mM ammonium citrate, ~321 mOsm.
Procedure: As used herein, "percent free drug" means the ratio of the amount of drug exterior to the liposomes in the final liposome suspension to the total amount of drug in the final suspension (the final product) multiplied by 100. [formula]
125 mL of first aqueous solution was mixed with 125 mL of the lipid component using a high-shear double-mixing vessel system to obtain the first emulsion. […] The aqueous and organic components were mixed at a speed of 8000 rpm for 30 minutes in the first emulsion vessel. […]
Percent free drug was calculated as the percent ratio of the amount of drug in the supernatant to the amount of drug in the final suspension. Percent free drug can also be calculated as the percent ratio of the drug concentration in the supernatant to that in the suspension, times (1-lipocrit) Drug loading, which measures the amount of drug encapsulated in each unit of the encapsulated volume, is approximately equal to and can be estimated (assuming low percent free drug) as the ratio of the drug concentration of the final liposome suspension to the lipocrit. […]
Using a reference absorbance standard established based on drug solutions of known concentration in the same dissolving solution, the concentrations of drug in the suspension and supernatant were calculated.
Data set [6] is described as follows: Drug loading of multivesicular liposomes (MVL): drug concentration of suspension relative to lipocrit. The format is physicochemical.
Data set [7] in a line: Percent encapsulation (percent yield) of drug in final MVL suspension. Type of data set: physicochemical.
The conditions of data set [8]: prior-art multivesicular liposomes; cited from earlier work.
The conditions of data set [9]: prior-art multivesicular liposomes; cited from earlier work. This is another data set of the same source.
The conditions of data set [10]: cited from earlier work.

Take “IGF-I: insulin-like growth factor I (IGF-I), encapsulated in MVLs”: the “% Lipocrit” value came out at 36.7% in [1] (5.0 w/v % sucrose, ~216 mOsm) and 41.8% in [1] (8.0 w/v % sucrose, ~321 mOsm). The “solubility and bioavailability of encapsulated IGF-I versus pH” value in [2] (10 to 80 mg/mL IGF-I, with or without 100 mM HCl or 25 mM citric acid) is recorded as “varied according to pH of the first aqueous component”. In addition, the solubility result in [2] (pH below 5) is on record as “about 300 mg/mL”. Also, the “physicochemical integrity of encapsulated IGF-I” value in data set [3] (SDS-PAGE and RP-HPLC, extracted with 75:25 IPA:2N citric acid) is “confirmed”. The “degradation of encapsulated protein” value in data set [3] (Table 6A formulations (100 mM HCl)) was “showed some degradation”. In data set [3] (absence of an acid buffer, Table 6B), the “presence of IGF-I oligomers” value is given as “increased presence of IGF-I oligomers in the absence of an acid buffer”. The “bioactivity of extracted IGF-I” value in data set [4] was “approximately equivalent to that of an unencapsulated standard”. Moreover, the “% Free IGF-I” value in data set [5] is reported as 0.18%.
With `CC(C)C[C@H](NC(=O)[C@H](Cc1ccccc1)NC(=O)CNC(=O)CNC(=O)[C@@H](N)Cc1ccc(O)cc1)C(=O)O` [Enkephalin, reference compound], the “effect of osmolarity of first aqueous solution on drug loading” value in data set [6] is on record as “decreasing of osmolarity resulting in increased drug loading”. The “Drug Loading” value turned out to be 50.8 mg/mL in [6] (first aqueous: 5 mg/mL, 0.0 w/v % sucrose, 25 mM citric acid, est. 35.5 mOsm); 13.4 mg/mL in [6] (first aqueous: 5 mg/mL, 2.5 w/v % sucrose, 25 mM citric acid, est. 111.5 mOsm); 6.4 mg/mL in data set [6] (first aqueous: 5 mg/mL, 5.0 w/v % sucrose, 25 mM citric acid, est. 191.5 mOsm). Moreover, in data set [7], the “% Yield” value is 77.5% and 71.8% and 72.5%. Also, the “effect of osmolarity of first aqueous solution on percent yield” value (from here on “effect of osmolarity … on percent yield”) in data set [7] is “not significantly changed by a decrease in osmolarity”.
On to `CCNC(=O)[C@@H]1CCCN1C(=O)[C@H](CCCNC(=N)N)NC(=O)[C@H](CC(C)C)NC(=O)[C@@H](CC(C)C)NC(=O)[C@H](Cc1ccc(O)cc1)NC(=O)[C@H](CO)NC(=O)[C@H](Cc1c[nH]c2ccccc12)NC(=O)[C@H](Cc1c[nH]cn1)NC(=O)[C@@H]1CCC(=O)N1` [Leuprolide, reference compound], for which, in data set [6], the “effect of osmolarity of first aqueous solution on drug loading” value was “decreasing of osmolarity resulting in increased drug loading”. Also, the “Drug Loading” value in [6] (first aqueous: 15 mg/mL, 4.0 w/v % sucrose, 100 mM phosphoric acid, est. 261.6 mOsm) turned out to be 17.9 mg/mL; in data set [6] (first aqueous: 15 mg/mL, 6.0 w/v % sucrose, 100 mM phosphoric acid, est. 328.6 mOsm) it was 10.9 mg/mL. Moreover, the “effect of osmolarity … on percent yield” value in data set [7] (MVL) is “A similar percent yield was maintained across the range of osmolarities tested”. Also, the “% Yield” value in data set [7] (MVL, first aqueous: 15 mg/mL, 4.0 w/v % sucrose, 100 mM phosphoric acid, est. 261.6 mOsm) worked out at 54.1%; in [7] (MVL, first aqueous: 15 mg/mL, 6.0 w/v % sucrose, 100 mM phosphoric acid, est. 328.6 mOsm) it was 56.2%.
On to cytosine arabinoside [Cytarabine], for which the “Drug Loading” value in [6] (first aqueous: 40 mg/mL, 0.0 w/v % sucrose, 20 mM citric acid, est. 185.9 mOsm) is 61.7 mg/mL; in data set [6] (first aqueous: 40 mg/mL, 2.0 w/v % sucrose, 20 mM citric acid, est. 245.9 mOsm), 45.2 mg/mL; in [6] (first aqueous: 40 mg/mL, 5.0 w/v % sucrose, 20 mM citric acid, est. 341.9 mOsm) it was 30.8 mg/mL; in data set [6] (first aqueous: 40 mg/mL, 8.0 w/v % sucrose, 20 mM citric acid, est. 446.9 mOsm), 21.0 mg/mL. For the same compound, the “% Yield” value in data set [7] was 57.1% and 62.6% and 77.3% and 69.6%. Besides, in [7], the “effect of osmolarity … on percent yield” value is recorded as “remaining relatively constant”. Also, the encapsulation efficiency result in data set [8] is reported as “relatively low”. Besides, the “release rate of encapsulated molecules in biological fluids” value in data set [9] is “faster than is therapeutically desirable”.
For `OC[C@H]1O[C@@](CO)(O[C@H]2O[C@H](CO)[C@@H](O)[C@H](O)[C@H]2O)[C@@H](O)[C@@H]1O` [sucrose], the Osmolarity for sucrose in data set [10] (0.5 w/v %) was 15 mOsm; in data set [10] (1.0 w/v %), 30 mOsm; in [10] (1.5 w/v %) it was 45 mOsm; in data set [10] (2.0 w/v %) it was 60 mOsm; in data set [10] (2.5 w/v %) it was 76 mOsm; in data set [10] (3.0 w/v %), 91 mOsm. In addition, the Osmolarity for sucrose in data set [10] (4.0 w/v %) was 123 mOsm; in data set [10] (5.0 w/v %), 156 mOsm; in data set [10] (6.0 w/v %), 190 mOsm; in data set [10] (7.0 w/v %), 225 mOsm; in data set [10] (8.0 w/v %) it was 261 mOsm.
